PMC4503722, “Novel Phenotypic Outcomes Identified for a Public Collection of Approved Drugs from a Publicly Accessible Panel of Assays” (PLoS ONE, 2015)

Assays:
[1] = tested on: ECFC/ADSC co-culture cell nuclei number
hFLT3 = biological target: T1, hFLT3 (Homo sapiens, UniProt P36888); assay: Cerep LANCE kinase assay hFLT3 (S1 assay 35); format: biochemical; settings: assay number 35
T1 construct: purchased Cerep (LANCE kinase assay platform, contract assay)

hp70S6K1 (RPS6KB1) = biological target: T2, hp70S6K1 (RPS6KB1) (Homo sapiens, UniProt P23443); assay: Cerep LANCE kinase assay hp70S6K1 (S1 assay 31); format: biochemical; settings: assay number 31
T2 construct: purchased Cerep (LANCE kinase assay platform, contract assay)

hGSK3b = biological target: T3, hGSK3b (Homo sapiens, UniProt P49841); assay: Cerep LANCE kinase assay hGSK3b (S1 assay 34); format: biochemical; settings: assay number 34
T3 construct: purchased Cerep (LANCE kinase assay platform, contract assay)

[2] = tested on: alkaline phosphatase (ALP) activity in C2C12 cells; format: cell-based; settings: assay number 6; concentration response
HeLa cells = assay: cells; format: cell-based; settings: for Hela CellCycMod PI 2N IC50/EC50: assay number 14; for Hela CellCycMod PI S Phase IC50/EC50: assay number 15; for Hela CellCycMod PI 4N IC50/EC50: assay number 16; for Hela CellCycMod PI MI IC50/EC50: assay number 17; for Hela CellCycMod PI Cell Number IC50/EC50: assay number 18
NCI-H716 cells = assay: cells; format: cell-based, Human; settings: assay number 12
hJAK2 = biological target: T4, hJAK2 (Homo sapiens, UniProt O60674); assay: Cerep LANCE kinase assay hJAK2 (S1 assay 33); format: biochemical; settings: assay number 33
T4 construct: purchased Cerep (LANCE kinase assay platform, contract assay)

[3] = tested on: endothelial tube formation in co-cultures of ECFCs and ADSCs treated with VEGF; assay: cells; format: cell-based, human
[4] = tested on: nuclear β-catenin in C2C12 cells; assay: cells; format: cell-based; settings: assay number 5; concentration response
hKDR = biological target: T5, hKDR (Homo sapiens, UniProt P35968); assay: Cerep LANCE kinase assay hKDR (S1 assay 32); format: biochemical; settings: assay number 32
T5 construct: purchased Cerep (LANCE kinase assay platform, contract assay)

STC-1 cell line = format: cell-based, mouse; settings: assay number 13
DLD-1 = assay: cells; format: cell-based; settings: assay number 23
SW480 = assay: cells; format: cell-based; settings: assay number 24
HT-29 = assay: cells; format: cell-based; settings: assay number 28
HCT116 = assay: cells; format: cell-based; settings: assay number 25; basal
SNU-C1 = assay: cells; format: cell-based; settings: assay number 30
Colo320 = assay: cells; format: cell-based; settings: assay number 27
RKO = assay: cells; format: cell-based; settings: assay number 29
[5] = tested on: HCT116 cells treated with a GSK3β inhibitor; assay: cells; format: cell-based; settings: assay number 26; GSK3b inhibitor pretreated
INS-1E cells = assay: cells; format: cell-based, rat; settings: assay number 8; 5 mM glucose;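 also: secreted insulin quantified by homogeneous immunoassay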

T4 sequence (O60674 whole entry): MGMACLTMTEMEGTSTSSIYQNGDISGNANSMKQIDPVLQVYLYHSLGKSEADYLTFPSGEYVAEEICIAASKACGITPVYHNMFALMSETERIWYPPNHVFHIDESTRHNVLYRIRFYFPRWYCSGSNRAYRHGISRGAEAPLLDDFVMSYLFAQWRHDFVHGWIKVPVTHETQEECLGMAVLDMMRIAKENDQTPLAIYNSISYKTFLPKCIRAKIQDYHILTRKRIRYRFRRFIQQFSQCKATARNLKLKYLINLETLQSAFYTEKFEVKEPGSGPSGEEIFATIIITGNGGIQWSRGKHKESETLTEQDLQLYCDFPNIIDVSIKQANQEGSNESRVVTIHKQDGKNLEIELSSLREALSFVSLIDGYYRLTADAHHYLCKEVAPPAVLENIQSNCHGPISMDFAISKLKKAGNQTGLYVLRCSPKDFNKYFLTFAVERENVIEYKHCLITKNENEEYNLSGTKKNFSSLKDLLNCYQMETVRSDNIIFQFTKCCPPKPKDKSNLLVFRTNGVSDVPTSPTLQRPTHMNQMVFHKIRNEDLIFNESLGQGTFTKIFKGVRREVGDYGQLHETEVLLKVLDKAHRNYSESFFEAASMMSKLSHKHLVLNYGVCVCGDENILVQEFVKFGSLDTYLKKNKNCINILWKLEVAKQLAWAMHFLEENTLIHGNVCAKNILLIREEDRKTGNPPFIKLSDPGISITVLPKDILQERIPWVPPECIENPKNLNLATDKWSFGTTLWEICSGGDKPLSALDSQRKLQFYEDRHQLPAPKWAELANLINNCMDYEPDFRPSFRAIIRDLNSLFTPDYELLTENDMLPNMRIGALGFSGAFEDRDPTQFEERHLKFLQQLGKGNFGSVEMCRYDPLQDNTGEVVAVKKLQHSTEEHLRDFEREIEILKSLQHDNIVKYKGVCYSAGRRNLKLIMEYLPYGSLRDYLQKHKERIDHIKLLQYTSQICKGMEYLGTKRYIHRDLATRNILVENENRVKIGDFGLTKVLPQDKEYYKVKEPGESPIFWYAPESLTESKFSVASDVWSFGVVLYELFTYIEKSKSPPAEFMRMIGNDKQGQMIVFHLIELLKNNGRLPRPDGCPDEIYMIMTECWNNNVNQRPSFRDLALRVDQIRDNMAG
T2 sequence (P23443 whole entry): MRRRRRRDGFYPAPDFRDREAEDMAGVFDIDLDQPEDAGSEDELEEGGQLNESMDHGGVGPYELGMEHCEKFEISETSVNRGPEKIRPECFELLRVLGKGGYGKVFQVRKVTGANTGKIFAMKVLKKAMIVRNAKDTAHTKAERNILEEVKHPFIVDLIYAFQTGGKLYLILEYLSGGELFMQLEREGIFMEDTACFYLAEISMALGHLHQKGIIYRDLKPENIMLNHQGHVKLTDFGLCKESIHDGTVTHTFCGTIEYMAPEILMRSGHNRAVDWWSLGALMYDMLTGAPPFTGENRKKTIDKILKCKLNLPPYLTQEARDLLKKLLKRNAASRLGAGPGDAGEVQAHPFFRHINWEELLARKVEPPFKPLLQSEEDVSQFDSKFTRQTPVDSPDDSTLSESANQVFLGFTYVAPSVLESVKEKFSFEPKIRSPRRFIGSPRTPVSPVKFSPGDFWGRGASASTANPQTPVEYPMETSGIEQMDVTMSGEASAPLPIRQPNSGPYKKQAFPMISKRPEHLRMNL
T5 sequence (P35968 20-1356): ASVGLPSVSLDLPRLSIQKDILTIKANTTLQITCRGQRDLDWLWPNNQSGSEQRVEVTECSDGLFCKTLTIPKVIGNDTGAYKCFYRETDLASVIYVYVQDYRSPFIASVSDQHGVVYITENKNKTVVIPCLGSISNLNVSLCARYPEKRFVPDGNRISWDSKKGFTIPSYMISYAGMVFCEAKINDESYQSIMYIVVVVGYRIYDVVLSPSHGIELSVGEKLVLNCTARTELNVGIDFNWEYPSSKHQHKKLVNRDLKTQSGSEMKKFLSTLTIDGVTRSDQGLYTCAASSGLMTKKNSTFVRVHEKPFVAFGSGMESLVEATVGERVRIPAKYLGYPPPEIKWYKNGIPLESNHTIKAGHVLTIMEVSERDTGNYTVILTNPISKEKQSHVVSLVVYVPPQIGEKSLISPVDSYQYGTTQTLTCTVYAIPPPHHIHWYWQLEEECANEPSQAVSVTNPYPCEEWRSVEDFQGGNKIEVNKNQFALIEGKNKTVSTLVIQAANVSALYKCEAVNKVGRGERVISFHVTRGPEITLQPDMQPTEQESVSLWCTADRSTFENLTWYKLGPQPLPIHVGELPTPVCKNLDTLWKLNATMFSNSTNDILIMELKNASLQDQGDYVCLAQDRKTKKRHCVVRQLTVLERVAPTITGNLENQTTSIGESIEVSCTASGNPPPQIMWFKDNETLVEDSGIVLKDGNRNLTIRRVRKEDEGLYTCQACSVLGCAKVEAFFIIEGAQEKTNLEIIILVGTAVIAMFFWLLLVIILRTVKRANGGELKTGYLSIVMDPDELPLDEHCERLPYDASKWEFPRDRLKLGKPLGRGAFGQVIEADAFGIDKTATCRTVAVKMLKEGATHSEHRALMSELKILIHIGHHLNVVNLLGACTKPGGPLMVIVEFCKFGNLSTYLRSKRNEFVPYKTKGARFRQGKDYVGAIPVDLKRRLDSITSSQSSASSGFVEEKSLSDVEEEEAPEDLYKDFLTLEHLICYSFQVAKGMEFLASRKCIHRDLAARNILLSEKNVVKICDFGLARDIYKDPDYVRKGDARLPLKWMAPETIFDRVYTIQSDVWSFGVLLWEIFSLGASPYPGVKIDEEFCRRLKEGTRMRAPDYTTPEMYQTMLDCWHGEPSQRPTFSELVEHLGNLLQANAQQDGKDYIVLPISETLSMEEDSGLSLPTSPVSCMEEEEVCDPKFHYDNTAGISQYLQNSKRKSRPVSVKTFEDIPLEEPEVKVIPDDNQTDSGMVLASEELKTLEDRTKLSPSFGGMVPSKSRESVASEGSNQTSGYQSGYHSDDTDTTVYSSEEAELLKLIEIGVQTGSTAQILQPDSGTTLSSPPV
T3 sequence (P49841 whole entry): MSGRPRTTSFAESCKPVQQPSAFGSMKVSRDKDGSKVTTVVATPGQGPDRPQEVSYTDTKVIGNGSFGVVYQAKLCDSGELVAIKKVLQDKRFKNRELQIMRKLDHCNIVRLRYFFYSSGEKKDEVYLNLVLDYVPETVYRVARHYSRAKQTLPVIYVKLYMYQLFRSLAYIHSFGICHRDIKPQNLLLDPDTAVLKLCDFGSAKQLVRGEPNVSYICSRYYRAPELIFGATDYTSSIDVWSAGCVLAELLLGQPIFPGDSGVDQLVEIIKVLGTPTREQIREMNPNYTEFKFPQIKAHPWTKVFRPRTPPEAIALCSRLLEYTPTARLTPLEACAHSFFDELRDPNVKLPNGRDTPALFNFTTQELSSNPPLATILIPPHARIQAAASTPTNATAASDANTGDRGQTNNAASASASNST
T1 sequence (P36888 27-993): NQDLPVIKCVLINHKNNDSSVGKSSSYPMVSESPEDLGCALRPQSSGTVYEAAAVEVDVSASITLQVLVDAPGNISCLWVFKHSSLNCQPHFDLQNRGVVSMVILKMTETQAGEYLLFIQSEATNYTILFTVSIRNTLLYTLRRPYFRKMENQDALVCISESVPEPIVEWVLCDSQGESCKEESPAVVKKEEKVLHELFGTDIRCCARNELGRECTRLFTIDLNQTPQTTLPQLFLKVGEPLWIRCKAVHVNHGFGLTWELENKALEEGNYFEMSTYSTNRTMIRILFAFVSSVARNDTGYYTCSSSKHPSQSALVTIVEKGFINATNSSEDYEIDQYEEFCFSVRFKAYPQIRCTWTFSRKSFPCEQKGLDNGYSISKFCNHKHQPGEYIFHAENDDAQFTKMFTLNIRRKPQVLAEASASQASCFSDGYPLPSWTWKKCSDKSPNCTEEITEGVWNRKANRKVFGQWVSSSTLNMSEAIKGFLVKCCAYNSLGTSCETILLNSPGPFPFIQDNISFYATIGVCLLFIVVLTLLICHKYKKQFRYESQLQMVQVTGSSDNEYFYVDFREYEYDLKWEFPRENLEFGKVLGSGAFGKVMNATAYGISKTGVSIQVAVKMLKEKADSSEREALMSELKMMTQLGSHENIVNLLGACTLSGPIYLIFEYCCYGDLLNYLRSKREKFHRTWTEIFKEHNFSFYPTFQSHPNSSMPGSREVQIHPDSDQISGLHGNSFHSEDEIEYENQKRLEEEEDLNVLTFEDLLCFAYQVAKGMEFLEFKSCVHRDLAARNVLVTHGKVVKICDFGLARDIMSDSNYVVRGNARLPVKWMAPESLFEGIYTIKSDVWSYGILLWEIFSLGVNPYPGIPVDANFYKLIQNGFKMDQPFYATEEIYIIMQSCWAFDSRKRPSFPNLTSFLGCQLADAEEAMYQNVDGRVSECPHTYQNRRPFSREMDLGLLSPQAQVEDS

SMILES	VEGF_ADSC\ECFC Angio Hoechst NucArea IC50/EC50 [1]	hFLT3 LANCE IC50/EC50 (hFLT3)	hp70S6K1 LANCE IC50/EC50 (hp70S6K1 (RPS6KB1))	hGSK3b LANCE IC50/EC50 (hGSK3b)	WntCondMedia_Alk Phos C2C12 IC50/EC50 [2]	Hela CellCycMod PI 2N IC50/EC50 (HeLa cells)	Hela CellCycMod PI S Phase IC50/EC50 (HeLa cells)	Hela CellCycMod PI 4N IC50/EC50 (HeLa cells)	Hela CellCycMod PI MI IC50/EC50 (HeLa cells)	Hela CellCycMod PI Cell Number IC50/EC50 (HeLa cells)	hNCI-H716 GLP1 Secretion IC50/EC50 (NCI-H716 cells)	hJAK2 LANCE IC50/EC50 (hJAK2)	VEGF_ADSC\ECFC Angio CD31 TubeArea IC50/EC50 [3]	WntCondMedia_bCatenin C2C12 IC50/EC50 [4]	hKDR LANCE IC50/EC50 (hKDR)	mSTC-1 GLP1 Secretion IC50/EC50 (STC-1 cell line)	Basal_Viability ATP HCT116 IC50/EC50 (HCT116)	GSK3b inh pretreated_Viability ATP HCT116 IC50/EC50 [5]	Basal_Viability ATP DLD-1 IC50/EC50 (DLD-1; basal)	Basal_Viability ATP SW480 IC50/EC50 (SW480; basal)	further results
C[C@@]12C(=O)OC(=O)[C@]1(C)C1CCC2O1 [NCGC00025212-08]	8.333 µM	> 20 µM	> 20 µM	> 20 µM	1.4897 µM	> 10 µM	> 10 µM	> 10 µM	8.4996 µM	1.0094 µM	6.6758 µM	> 20 µM	1.2254 µM	> 20 µM	> 20 µM	13.7125 µM					
CCCCCCCCCCCCCC[N+](C)(C)C.[Br-] [NCGC00166121-03]	6.684 µM	> 20 µM	> 20 µM	> 20 µM	> 20 µM	> 10 µM	> 10 µM	> 10 µM	> 10 µM	3.3211 µM	18.5931 µM	> 20 µM	1.9016 µM	> 20 µM	> 20 µM	> 40 µM	2.287 µM	0.754 µM			Basal_Viability ATP DLD-1 IC50/EC50 (DLD-1): 0.4746 µM; Basal_Viability ATP SW480 IC50/EC50 (SW480): 0.9328 µM; Basal_Viability ATP HT-29 IC50/EC50 (HT-29): 1.32 µM; Basal_Viability ATP SNU-C1 IC50/EC50 (SNU-C1): 0.00517 µM; Basal_Viability ATP Colo 320 IC50/EC50 (Colo320): 2.516 µM; Basal_Viability ATP RKO IC50/EC50 (RKO): 0.1473 µM
C#C[C@]1(O)CC[C@H]2[C@@H]3CCc4cc(OC5CCCC5)ccc4[C@H]3CC[C@@]21C [NCGC00166146-02]					> 20 µM						17.5795 µM			> 20 µM		> 40 µM					
c1ccc2c(c1)Sc1ccccc1N2CC1CN2CCC1CC2 (stereo not shown) [NCGC00183046-03]	> 10 µM				> 20 µM						> 40 µM		9.4389 µM	> 20 µM		> 40 µM	> 20 µM	> 20 µM	> 20 µM	5.431 µM	Basal_Viability ATP HT-29 IC50/EC50 (HT-29; basal): > 20 µM; Basal_Viability ATP SNU-C1 IC50/EC50 (SNU-C1; basal): > 20 µM; Basal_Viability ATP Colo 320 IC50/EC50 (Colo320; basal): > 20 µM; Basal_Viability ATP RKO IC50/EC50 (RKO; basal): 8.4586 µM
Cc1cc2c(C(C)C)c(O)c(O)c(C=O)c2c(O)c1-c1c(C)cc2c(C(C)C)c(O)c(O)c(C=O)c2c1O [NCGC00016423-15]		> 20 µM	> 20 µM	> 20 µM	> 20 µM	> 10 µM	> 10 µM	> 10 µM	> 10 µM	3.7083 µM	23.4306 µM	> 20 µM		3.4859 µM	> 20 µM	> 40 µM	0.7844 µM		0.8345 µM	0.9563 µM	Basal_Viability ATP HT-29 IC50/EC50 (HT-29; basal): 1.4237 µM; Basal_Viability ATP SNU-C1 IC50/EC50 (SNU-C1; basal): 0.3538 µM; Basal_Viability ATP Colo 320 IC50/EC50 (Colo320; basal): 1.3794 µM; Basal_Viability ATP RKO IC50/EC50 (RKO; basal): 0.9156 µM
CC(=O)Oc1ccc(C2(c3ccc(OC(C)=O)cc3)Oc3ccccc3NC2=O)cc1 [NCGC00182998-01]	> 10 µM	> 20 µM	> 20 µM	> 20 µM	13.9611 µM	> 10 µM	> 10 µM	> 10 µM	> 10 µM	5.7532 µM		> 20 µM	2.2736 µM	> 20 µM	> 20 µM			3.2604 µM			Basal_Viability ATP DLD-1 IC50/EC50 (DLD-1): 19.7291 µM; Basal_Viability ATP SW480 IC50/EC50 (SW480): 9.1881 µM; Basal_Viability ATP HT-29 IC50/EC50 (HT-29): > 20 µM; 5mMGluc_INS1E SecretionMod IC50/EC50 (INS-1E cells): > 33.33 µM; Basal_Viability ATP SNU-C1 IC50/EC50 (SNU-C1): > 20 µM; Basal_Viability ATP Colo 320 IC50/EC50 (Colo320): > 20 µM; Basal_Viability ATP RKO IC50/EC50 (RKO): 9.2255 µM
O=C(CCl)c1ccc(Cl)cc1Cl [NCGC00091258-05]	6.1739 µM	> 20 µM	> 20 µM	> 20 µM	> 20 µM	0.514 µM	> 10 µM	> 10 µM	0.541 µM	0.35 µM		> 20 µM	2.4875 µM	0.3728 µM	> 20 µM		6.3 µM	1.098 µM	2.0651 µM	1.249 µM	Basal_Viability ATP HT-29 IC50/EC50 (HT-29; basal): 8.5217 µM; Basal_Viability ATP SNU-C1 IC50/EC50 (SNU-C1; basal): 2.9752 µM; Basal_Viability ATP Colo 320 IC50/EC50 (Colo320; basal): 0.5301 µM; Basal_Viability ATP RKO IC50/EC50 (RKO; basal): 4.299 µM
Cc1cc(C2CCCCC2)n(O)c(=O)c1.NCCO [NCGC00017112-10]	> 10 µM	> 20 µM	> 20 µM	> 20 µM	1.0476 µM	> 10 µM		> 10 µM	> 10 µM	0.5693 µM		> 20 µM	> 10 µM	> 20 µM	> 20 µM		0.6557 µM	0.3898 µM	0.316 µM	0.469 µM	Basal_Viability ATP HT-29 IC50/EC50 (HT-29; basal): 7.035 µM; Basal_Viability ATP SNU-C1 IC50/EC50 (SNU-C1; basal): > 20 µM; Basal_Viability ATP Colo 320 IC50/EC50 (Colo320; basal): 0.2084 µM; Basal_Viability ATP RKO IC50/EC50 (RKO; basal): 0.2329 µM
Cc1ccc2nc(N)[nH]c(=O)c2c1Sc1ccncc1.Cl.Cl [NCGC00263580-01]	> 10 µM	> 20 µM	17.8 µM	> 20 µM	0.2444 µM	> 10 µM	> 10 µM	> 10 µM	> 10 µM	> 10 µM		> 20 µM	7.3662 µM	0.7099 µM	> 20 µM		3.495 µM	0.8299 µM			Basal_Viability ATP DLD-1 IC50/EC50 (DLD-1): > 20 µM; Basal_Viability ATP SW480 IC50/EC50 (SW480): 2.241 µM; Basal_Viability ATP HT-29 IC50/EC50 (HT-29): 4.747 µM; Basal_Viability ATP SNU-C1 IC50/EC50 (SNU-C1): > 20 µM; Basal_Viability ATP Colo 320 IC50/EC50 (Colo320): > 20 µM; Basal_Viability ATP RKO IC50/EC50 (RKO): 0.3429 µM
